Measurements taken from patent US9527837B2, “Inhibitors of EZH2” (Eli Lilly and Company, priority 2014, dated 2016).

Tests used:
Karpas-422 cells = assay: Karpas-422 proliferation assay; format: cell-based; conditions: Homo sapiens, KARPAS-422, 168 h; 7 days, Cell Titer GLO
Experimental: Plate Karpas-422 cells at a density of 5000 cells/100 μL/well in 96 well, black 96-well BD BioCoat Cellware, Poly-Lysine plates (BD Biosciences, Cat#354640). 40 μL of 10 mM test compound (representing starting final concentration of 20 μM) or add 100% DMSO to a Nunc 96-Well Polypropylene MicroWell Plate (Thermo Scientific Cat# #249944). Perform serial dilutions through the transfer of 20 μL from one well to the next. Add 5 μL of compound to a 245 μL/well of growth media in a separate Nunc 96-Well Polypropylene MicroWell Plate, and stamp 11 μL of the compound/media mix onto the cell plates. Incubate cell plates at 37° C. for 7 days. Add 100 μL/well of Cell Titer GLO® reagent (Promega, Cat# G7671) to the cell plates. Shake 2 minutes and measure luminescence using a plate reader.

[1] = test system: tri-methylated H3K27 in MDA MB-231 (EZH2 WT) cells; assay: H3K27Me3 cell-based ELISA, MDA MB-231; conditions: Homo sapiens, 48 hours
Experimental: (§1) The purpose of this assay is to evaluate the ability of a compound to inhibit the functional activity of EZH2 in cells, via measurement of levels of cell tri-methylated H3K27. Plate MDA MB-231 (EZH2 WT) or Karpas-422 (EZH2 Y641N) cells at 3500/100 μL/well (for MDA MB-231) or 5,000 cells/100 μL/well (for Karpas-422) in black 96-well BD BioCoat Cellware, Poly-Lysine plates (BD Biosciences, Cat#354640). Prepare compound plates in a Nunc™ 96-Well Polypropylene MicroWell Plate (Thermo Scientific Cat# #249944) with the addition of 40 μL/well of 10 mM compound (representing starting final concentration of 20 μM) or 40 μL DMSO, then prepare serial dilutions through the transfer of 20 μL from one well to the next. Add 5 μL of test compound to 245 μL/well of growth media in a separate Nunc™ 96-Well Polypropylene MicroWell Plate, and stamp 11 μL of the compound/media mix onto the cell plates. Place cell plates in a 37° C. incubator for 48 hours. Remove plates from the incubator, place the plates at room temperature for 15-20 minutes, and spin down the plates at 1000 rpm for 5 minutes. Fix cells with 30 μL 16% paraformaldehyde for 15 minutes at room temperature. Remove the paraformaldehyde and permeabilize cells with 100 μL/well PBS minus calcium or magnesium (−/−) containing 0.1% TRITON® X-100 for 20 minutes at room temperature. […]

[2] = test system: tri-methylated H3K27 in Karpas-422 (EZH2 Y641N) cells; assay: H3K27Me3 cell-based ELISA, Karpas-422; conditions: Homo sapiens, 48 hours
Experimental: as §1

[3] = test system: tumor tri-methylated H3K27 (Karpas-422 xenograft); assay: ELISA-based measurement of tumor-derived tri-methylated H3K27, Karpas-422 xenograft; format: in vivo; conditions: mice, 50 mpk BID oral gavage, day 7, p<0.0001
Experimental: (§2) The purpose of this assay is to evaluate the ability of a test compound to inhibit tumor EZH2 function and EZH2-mediated tumor growth in vivo.
To acid-extract histones from tumors, place tumor sections of approximately 0.5 cm by 0.25 cm or 20-30 mg in weight in Lysing Matrix D 500×2 mL Add RNASE/DNASE-free tubes with beads for homogenization (MP Biomedicals, Cat#6913-500). Add 650 μL of Acid Lysis Buffer (0.4 N HCl containing Protease Inhibitor Cocktail Tablets (Roche; Cat#11836153001)). Homogenize tumor samples 2-3 times at speed 6 m/second for 20 seconds in a FastPrep FP120 homogenizer. Set samples on ice for 1 hour to separate. Transfer supernatants to an eppendorf tube and place on a tube rotator to lyse overnight at 4° C. Spin samples down at 8000 rpm for 10 minutes at 4° C. Transfer supernatants to a new tube and measure for protein concentration.
Add 150 μL/well of MSD Blocking Solution A (Meso Scale Discovery (MSD); final concentration of 3%) to a MULTI-SPOT® Tri-Methyl-Histone H3(K27) Singleplex plate (MSD; Cat#: N45CA-1). Shake at room temperature for 1 hour. Wash the plate with 1×MSD Tris Wash Buffer™ (MSD), (3×). Dispense 0.25 μg of tumor lysate in 25 μL Acid Lysis Buffer per well in triplicate. Shake overnight at 4° C. […] Add 150 μL/well 1×MSD® Read Buffer and measure chemoelectroluminescence using a MSD SECTOR® Imager 6000 instrument.

[4] = test system: tumor TNFRSF21 gene expression (Karpas-422 xenograft); assay: qPCR-based measurement of tumor-derived TNFRSF21 mRNA expression, Karpas-422 xenograft; format: in vivo, mice; conditions: 50 mpk BID oral gavage, day 7, normalized to GAPDH, p<0.0001
Experimental: as §2
To isolate RNA from tumor tissue, place tumor sections of approximately 0.5 cm by 0.25 cm or 20-30 mg in weight in Lysing Matrix D 500×2 mL Add RNASE/DNASE-free tubes with beads for homogenization (MP Biomedicals, REF: 6913-500). Add 650 μL of RLT buffer from RNeasy® Kit (Qiagen; Cat#74104). Homogenize samples 2 to 3 times at speed 6 for 20 seconds in the FastPrep FP120 homogenizer. Set samples on ice to cool for 10 minutes. Centrifuge at 13 000 rpm for 10 minutes at 4° C. Place supernatants into a QIA tube and isolate RNA using the RNeasy® Kit (Qiagen; Cat#74104).
Prepare cDNA from 3 μg of tumor RNA using the High Capacity cDNA Reverse Transcription Kit (Applied Biosystems; Cat#4368813) and incubate samples in a PCR Thermocycler using the following cycle conditions: 10 minutes at 25° C.; 2 hours at 37° C., hold at 4° C. Amplify cDNA product using Thermo Scientific ABsolute Blue QPCR ROX Mix (Applied Biosystems; Cat# AB-4139) and Taqman probes for TNFRSF21 (Applied Biosystems; Cat# Hs01560899_m1) and housekeeping gene GAPDH (Applied Biosystems; Cat# Hs02758991-g1) in the Applied Biosystems ViiA 7™ Real-Time PCR cycler. Calculate TNFRSF21 cycle threshold values and normalize to its respective sample's GAPDH levels. […]

Row | IC50 (Karpas-422 cells) [µM] | IC50 [1] [µM] | IC50 [2] [µM] | Structure (SMILES) | inhibition of tumor methylation [3] [%] | increase in tumor TNFRSF21 gene expression [4] [fold]
1 | 0.526 | 0.00902 ± 0.00269 | 0.144 ± 0.232 | COC1CN([C@H]2CC[C@H]([C@H](C)c3scc(C(=O)NCc4c(C)cc(C)[nH]c4=O)c3C)CC2)C1 [Example 2, N-[(4,6-Dimethyl-2-oxo-1,2-dihydropyridin-3-yl)methyl]-5-{(1S)-1-[trans-4-(3-methoxyazetin-1-yl)cyclohexyl]ethyl}-4-methylthiophene-3-carboxamide] |  | 
2 | 0.0497 ± 0.0339 | 0.00188 ± 0.00066 | 0.00379 ± 0.00102 | COC1CN([C@H]2CC[C@H]([C@@H](C)c3scc(C(=O)NCc4c(C)cc(C)[nH]c4=O)c3C)CC2)C1 [Example 1, N-[(4,6-Dimethyl-2-oxo-1,2-dihydropyridin-3-yl)methyl]-5-{(1R)-1-[trans-4-(3-methoxyazetidin-1-yl)cyclohexyl]ethyl}-4-methylthiophene-3-carboxamide] | 53 | 25
